Experimental data from patent US20110306608A1, “COMPOSITIONS AND METHODS FOR TREATING VASCULAR, AUTOIMMUNE AND INFLAMMATORY DISEASES” (priority 2005, published 2011).

Columns and labels:
[1] = test system: endothelial nitric oxide synthase (eNOS) expression; conditions: in vitro, cholesterol clamped conditions; cited from earlier work
[2] = Serum mycophenolic acid level by commercial assay in mice fed MMF in chow; assay type: in vivo, mouse
Source text: No MPA was detected in the serum of control mice (data not shown).

Row | Structure (SMILES) | upregulation of eNOS expression [1] | average serum mycophenolic acid (MPA) level ([2]; high-dose group (MMF 100 mg/kg/day in high-fat chow)) [mg/L] | average serum mycophenolic acid (MPA) level ([2]; low-dose group (MMF 15 mg/kg/day in high-fat chow)) [mg/L]
1 | CC[C@H](C)C(=O)O[C@H]1C[C@@H](C)C=C2C=C[C@H](C)[C@H](CC[C@@H]3C[C@@H](O)CC(=O)O3)[C@H]21 [lovastatin] | almost fourfold |  | 
2 | COc1c(C)c2c(c(O)c1C/C=C(\C)CCC(=O)O)C(=O)OC2 [MPA, mycophenolic acid] |  | 3.65 ± 0.3 | 1.16 ± 0.09
